Experiments:
Assay type in all cases: cell-based
[1] = system: T47D (PI3Kα H1047R mutant) cells; assay: CellTiter-Glo 2.0 luminescent cell viability assay, 72 hours, T47D cells; details: Homo sapiens, T47D, 72 h, T47D (PI3Kα H1047R mutant) cells, CellTiter-Glo, approximately 72 hours; read-out: T47D (H1047R mutant) Viability IC50
Outline: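 Cells seeded at 1000 per well overnight were dosed with a 10-concentration, 1:4 series starting at 10 µM and incubated ~72 h at 37° C. Viability was read by CellTiter-Glo 2.0 luminescence after 30 min at room temperature. IC50 came from four-parameter fits of percent vehicle control.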

[2] = system: SKBR3 (PI3Kα wild type) cells; assay: CellTiter-Glo 2.0 luminescent cell viability assay, 72 hours, SKBR3 cells; details: Homo sapiens, SK-BR-3, 72 h, SKBR3 (PI3Kα wild type) cells, CellTiter-Glo, approximately 72 hours; read-out: SKBR3 (WT) Viability IC50
Outline: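 Viability measured via CTG luminescence following roughly 72 hours of compound exposure at 37° C. Dosing used a 10 um starting concentration diluted 1:4 over 10 points; percent-of-vehicle data fitted with a variable-slope four-parameter model for IC50.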

[3] = system: T47D (PI3Kα H1047R mutant) cells; assay: Inhibition of pAKT formation, alphaLISA SureFire Ultra AKT 1/2/3 (pS473), T47D cells; details: Homo sapiens, T47D, T47D (PI3Kα H1047R mutant) cells; inhibition of pAKT (pS473) formation; approximately one hour or 24 hours treatment; read-out: T47D pAKT (H1047R mutant) IC50
Outline: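 T47D cells (12,000/well) in HBSS were dosed with compound at 10 concentrations (10.4 μM top, 1:4 dilutions) for about 1 h or 24 h at 37 °C, then lysed. pS473 AKT was read by alphaLISA. Signals were normalized to alpelisib and DMSO controls, and IC50 came from a four-parameter fit.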

IC50 [1] [nM] | IC50 [2] [nM] | IC50 [3] [nM] | SMILES
98.5 | > 10000 | 2.58 | Cc1cc([C@@H](C)Nc2ccccc2C(=O)O)c2nc(N3CCC(F)(F)CC3)c(Cl)c(=O)n2c1 [Example 10-114, (R)-2-((1-(3-chloro-2-(4,4-difluoropiperidin-1-yl)-7-methyl-4-oxo-4H-pyrido[1,2-a]pyrimidin-9-yl)ethyl)amino)benzoic acid]
163 | > 10000 | 4.1 | Cc1cc([C@@H](C)Nc2ccccc2C(=O)O)c2nc(N3CC4CC3C(F)(F)C4)c(C)c(=O)n2c1 (stereo partly drawn) [Example 10-141, 2-(((1R)-1-(2-(6,6-difluoro-2-azabicyclo[2.2.1]heptan-2-yl)-3,7-dimethyl-4-oxo-4H-pyrido[1,2-a]pyrimidin-9-yl)ethyl)amino)benzoic acid]
93.6 | > 10000 | 2.89 | Cc1cc([C@@H](C)Nc2ccccc2C(=O)O)c2nc(N3CCC4(CC4)C(F)(F)C3)c(C#N)c(=O)n2c1 [Example 10-108, (R)-2-((1-(3-cyano-2-(4,4-difluoro-6-azaspiro[2.5]octan-6-yl)-7-methyl-4-oxo-4H-pyrido[1,2-a]pyrimidin-9-yl)ethyl)amino)benzoic acid]
111 | > 10000 | 1.38 | Cc1cc([C@@H](C)Nc2ccccc2C(=O)O)c2nc(N3CC[C@@H]3C)c(C#N)c(=O)n2c1 (single isomer, unassigned) [Example 10-95]
94.1 | > 10000 | 1.05 | Cc1cc([C@@H](C)Nc2ccccc2C(=O)O)c2nc(N3CCN(c4ccc(C#N)cc4)C(C)C3)c(C)c(=O)n2c1 (stereo partly drawn) [Example 10-110, 2-(((1R)-1-(2-(4-(4-cyanophenyl)-3-methylpiperazin-1-yl)-3,7-dimethyl-4-oxo-4H-pyrido[1,2-a]pyrimidin-9-yl)ethyl)amino)benzoic acid]
100 | > 10000 | 1.58 | COC1CCN(c2nc3c([C@@H](C)Nc4ccccc4C(=O)O)cc(C)cn3c(=O)c2C)CC1(F)F (stereo partly drawn) [Example 10-116, 2-(((1R)-1-(2-(3,3-difluoro-4-methoxypiperidin-1-yl)-3,7-dimethyl-4-oxo-4H-pyrido[1,2-a]pyrimidin-9-yl)ethyl)amino)benzoic acid]
77.2 | > 10000 | 4.35 | Cc1cc([C@@H](C)Nc2ccccc2C(=O)O)c2nc(N3CC[C@@H]3CF)c(C#N)c(=O)n2c1 (single isomer, unassigned) [Example 10-53]
85.2 | > 10000 | 2.04 | Cc1cc([C@@H](C)Nc2ccccc2C(=O)O)c2nc(N3CC4CCC3CC4)c(C#N)c(=O)n2c1 [Example 10-97, (R)-2-((1-(2-(2-azabicyclo[2.2.2]octan-2-yl)-3-cyano-7-methyl-4-oxo-4H-pyrido[1,2-a]pyrimidin-9-yl)ethyl)amino)benzoic acid]
80.3 | > 10000 | 3.77 | Cc1cc([C@@H](C)Nc2ccccc2C(=O)O)c2nc(N3CC4CC3C(F)(F)C4)c(C#N)c(=O)n2c1 (stereo partly drawn) [Example 10-88, 2-(((1R)-1-(3-cyano-2-(6,6-difluoro-2-azabicyclo[2.2.1]heptan-2-yl)-7-methyl-4-oxo-4H-pyrido[1,2-a]pyrimidin-9-yl)ethyl)amino)benzoic acid]
107 | > 10000 | 3.13 | Cc1cc([C@@H](C)Nc2ccccc2C(=O)O)c2nc(N3CCN(CC(F)(F)F)CC3)c(C)c(=O)n2c1 [Example 10-125, (R)-2-((1-(3,7-dimethyl-4-oxo-2-(4-(2,2,2-trifluoroethyl)piperazin-1-yl)-4H-pyrido[1,2-a]pyrimidin-9-yl)ethyl)amino)benzoic acid]

More lines, now with the values behind:

SMILES | IC50 [1] [nM] | IC50 [2] [nM] | IC50 [3] [nM]
C[C@@H](Nc1ccccc1C(=O)O)c1cc(Cl)cn2c(=O)c(C#N)c(N3Cc4ccccc4C3)nc12 [Example 10-11, (R)-2-((1-(7-chloro-3-cyano-2-(isoindolin-2-yl)-4-oxo-4H-pyrido[1,2-a]pyrimidin-9-yl)ethyl)amino)benzoic acid] | 30.5 | 7770 | 1.71
Cc1cc([C@@H](C)Nc2ccc(C)nc2C(=O)O)c2nc(N3Cc4ccccc4C3)c(C#N)c(=O)n2c1 [Example 10-5, (R)-3-((1-(3-cyano-2-(isoindolin-2-yl)-7-methyl-4-oxo-4H-pyrido[1,2-a]pyrimidin-9-yl)ethyl)amino)-6-methylpicolinic acid] | 13.6 | 2190 | 0.425
Cc1cc([C@@H](C)Nc2ccccc2C(=O)O)c2nc(N3CC(F)(F)C(F)(F)C3)c(C)c(=O)n2c1 [Example 10-51, (R)-2-((1-(3,7-dimethyl-4-oxo-2-(3,3,4,4-tetrafluoropyrrolidin-1-yl)-4H-pyrido[1,2-a]pyrimidin-9-yl)ethyl)amino)benzoic acid] | 68 | > 10000 | 1.93
Cc1cc([C@@H](C)Nc2ccccc2C(=O)O)c2nc(N3CCCC(F)(F)C3)c(C)c(=O)n2c1 [Example 10-18, (R)-2-((1-(2-(3,3-difluoropiperidin-1-yl)-3,7-dimethyl-4-oxo-4H-pyrido[1,2-a]pyrimidin-9-yl)ethyl)amino)benzoic acid] | 38.4 | > 10000 | 2.01
Cc1cc([C@@H](C)Nc2ccccc2C(=O)O)c2nc(N3CCN(c4ccc(F)cc4)CC3)c(C)c(=O)n2c1 [Example 10-36, (R)-2-((1-(2-(4-(4-fluorophenyl)piperazin-1-yl)-3,7-dimethyl-4-oxo-4H-pyrido[1,2-a]pyrimidin-9-yl)ethyl)amino)benzoic acid] | 57 | > 10000 | 3.8
Cc1cc([C@@H](C)Nc2ccccc2C(=O)O)c2nc(N3CCN(c4ccccc4C#N)CC3)c(C)c(=O)n2c1 [Example 10-45, (R)-2-((1-(2-(4-(2-cyanophenyl)piperazin-1-yl)-3,7-dimethyl-4-oxo-4H-pyrido[1,2-a]pyrimidin-9-yl)ethyl)amino)benzoic acid] | 64.2 | > 10000 | 2.94
Cc1cc([C@@H](C)Nc2ccccc2C(=O)O)c2nc(NC3CC(F)(F)C3)c(C#N)c(=O)n2c1 [Example 10-37, (R)-2-((1-(3-cyano-2-((3,3-difluorocyclobutyl)amino)-7-methyl-4-oxo-4H-pyrido[1,2-a]pyrimidin-9-yl)ethyl)amino)benzoic acid] | 57.4 | > 10000 | 2.19
Cc1cc([C@@H](C)Nc2ccccc2C(=O)O)c2nc(N3CCC(F)(F)CC3)c(Br)c(=O)n2c1 [Example 10-12, (R)-2-((1-(3-bromo-2-(4,4-difluoropiperidin-1-yl)-7-methyl-4-oxo-4H-pyrido[1,2-a]pyrimidin-9-yl)ethyl)amino)benzoic acid] | 31 | > 10000 | 0.639
Cc1cc([C@@H](C)Nc2ccccc2C(=O)O)c2nc(N3CCN(c4cc(C)no4)CC3)c(C)c(=O)n2c1 [Example 10-48, (R)-2-((1-(3,7-dimethyl-2-(4-(3-methylisoxazol-5-yl)piperazin-1-yl)-4-oxo-4H-pyrido[1,2-a]pyrimidin-9-yl)ethyl)amino)benzoic acid] | 66.3 | > 10000 | 2.96
